Patent publication US7759496B2, “Imidazole derivatives having affinity for alpha 2 receptors activity” (Orion Corporation, priority 2002, dated 2010)
Read-outs that look alike come from different tables or passages of the source. Each block holds one molecule with its values, some of them ahead of it.

Experiments:
[1] = tested on: normotensive rabbits; assay: IOP study in rabbits; format: in vivo, rabbit; conditions: for Intraocular pressure (IOP) change: mean ± SE, n = 5-6
Method: The IOP lowering effect of the prodrug was also compared to the effect of MPV-2426.
To perform the IOP test, a rabbit was placed in a plastic restraining box located in a quiet room. A single drop (25 μl) of the test solution was instilled unilaterally into its left eye on the upper corneoscleral limbus. During installation, the upper eyelid was pulled slightly away from the globe. IOP was measured using a BioRad (Cambridge, Mass.) Digilab Modular One Pneumatonometer. Before each measurement one or two drops of oxybuprocaine (0.06%) were applied to the cornea before tonometry to eliminate discomfort. The upper and lower eyelids were then gently retracted, and the applanation sensor was brought into contact with the center of the cornea. For each
determination at least two readings were taken from each treated (ipsilateral) and untreated (contralateral) eye, and the mean of these readings was used. IOP of the rabbits was measured at 2, 1, and 0 h before and at 0.5, 1, 2, 3, 4 and 5 h after eyedrop administration. IOP at the time of eyedrop administration (0 h) was used as a baseline value. All studies were set up using a masked and randomized crossover design. At least 72 h washout time was allowed for each rabbit between each dosing. Results

[2] = Chemical stability in phosphate buffer at 37° C.; format: physicochemical
Method: An appropriate amount of the test compound (initial concentrations were 0.1-0.4 mM) was dissolved in pre-heated phosphate buffer (0.16 M, μ=0.5, pH 7.4 or pH 5.0). The solution was placed in a thermostated water bath at 37° C. and aliquots were taken at suitable intervals and analyzed by HPLC to determine the degradation rate of the compound. The pseudo-first-order half-life (t1/2) was calculated from the linear slopes of semi-logarithmic plots of remaining compound over time.

[3] = tested on: serum esterases; assay: Enzymatic hydrolysis in 80% human serum; format: in vitro ADME; conditions: pH 7.4, 37° C., read-out: t1/2 (min) 80% human serum (pH 7.4)
Method: To exert the pharmacological effect in the body, a prodrug should be enzymatically degraded to the parent drug. Therefore, the susceptibility of the compounds to serum esterases was evaluated.
An appropriate amount of the test compound was dissolved in one volume (e.g. 1 ml) of phosphate buffer (0.16 M, μ=0.5, pH 7.4) at 37° C. Four volumes (e.g. 4 ml) of pre-heated human serum were added and the solutions were mixed in a water bath at 37° C. (initial concentrations were 0.2-0.5 mM). At suitable intervals, 300 μl aliquots were withdrawn and deproteinated with 600 μl of acetonitrile. After mixing and centrifugation, 600 μl of the supernatant was evaporated to dryness under a stream of air at 40° C. The residue was re-dissolved in 300 μl of the mobile phase and analyzed by HPLC. The pseudo-first-order half-life (t1/2) was calculated from the linear slopes of semi-logarithmic plots of remaining compound over time. Also the formation of the parent drug was determined.

[4] = phosphate buffer pH 5.0, 37° C., read-out: t1/2 (d) phosphate buffer pH 5.0 (converted)
[5] = phosphate buffer pH 7.4, 37° C., read-out: t1/2 (d) phosphate buffer pH 7.4 (converted)
[6] = topical unilateral administration

SMILES: Cl.Oc1ccc2c(c1)C(Cc1c[nH]cn1)CC2 (stereo not drawn) [MPV-2426, 4-(6-hydroxyindan-1-ylmethyl)-1H-imidazol-1-ium chloride, reference compound]
Intraocular pressure (IOP) change ([1]; treated eye, 2.5 μg, 0 h): 0.0 ± 0.0 mmHg
Intraocular pressure (IOP) change ([1]; treated eye, 2.5 μg, 0.5 h): 0.1 ± 1.0 mmHg
Intraocular pressure (IOP) change ([1]; treated eye, 2.5 μg, 1 h): −2.6 ± 1.1 mmHg
Intraocular pressure (IOP) change ([1]; treated eye, 2.5 μg, 2 h): −3.0 ± 0.7 mmHg
Intraocular pressure (IOP) change ([1]; treated eye, 2.5 μg, 3 h): −2.4 ± 0.5 mmHg
Intraocular pressure (IOP) change ([1]; treated eye, 2.5 μg, 4 h): −0.4 ± 1.2 mmHg
Intraocular pressure (IOP) change ([1]; treated eye, 2.5 μg, 5 h): −0.1 ± 0.8 mmHg
Intraocular pressure (IOP) change ([1]; untreated eye, 2.5 μg, 0 h): 0.0 ± 0.0 mmHg
Intraocular pressure (IOP) change ([1]; untreated eye, 2.5 μg, 0.5 h): 0.3 ± 1.0 mmHg
Intraocular pressure (IOP) change ([1]; untreated eye, 2.5 μg, 1 h): −1.3 ± 0.7 mmHg
Intraocular pressure (IOP) change ([1]; untreated eye, 2.5 μg, 2 h): −1.6 ± 0.9 mmHg
Intraocular pressure (IOP) change ([1]; untreated eye, 2.5 μg, 3 h): −1.7 ± 0.6 mmHg
Intraocular pressure (IOP) change ([1]; untreated eye, 2.5 μg, 4 h): 0.4 ± 1.1 mmHg
Intraocular pressure (IOP) change ([1]; untreated eye, 2.5 μg, 5 h): 0.4 ± 1.1 mmHg

SMILES: CCCC(=O)Oc1ccc2c(c1)C(Cc1c[nH]cn1)CC2.Cl (stereo not drawn) [example 2, 4-(6-Butyryloxyindan-1-ylmethyl)-1H-imidazol-1-ium chloride]
half-life [2, 4]: 49 days
half-life [2, 5]: 2.5 days
half-life [3]: 0.2 min

SMILES: CC(=O)Oc1ccc2c(c1)C(Cc1c[nH]cn1)CC2.Cl (stereo not drawn) [example 1, 4-(6-Acetoxyindan-1-ylmethyl)-1H-imidazol-1-ium chloride]
half-life [2, 4]: 23 days
half-life [2, 5]: 1.1 days
half-life [3]: 0.18 min

half-life [2, 4]: 310 days
half-life [2, 5]: 31 days
half-life [3]: 30 min
melting point: 176 to 177 °C
SMILES: CC(C)(C)C(=O)Oc1ccc2c(c1)C(Cc1c[nH]cn1)CC2.Cl (stereo not drawn) [example 3, 4-[6-(2,2-Dimethylpropanoyloxy)indan-1-ylmethyl]-1H-imidazol-1-ium chloride]
IOP lowering potency compared to an equimolar dose of MPV-2426 [1, 6]: increased IOP lowering potency
duration of action compared to MPV-2426 [1, 6]: prolonged duration of action
duration of the IOP lowering effect ([1]; topical unilateral administration, treated eye): lasted from 1 h through the duration of the 5 h experiment
Intraocular pressure (IOP) change ([1]; treated eye, 0.1 μg, 0 h): 0.0 ± 0.0 mmHg
Intraocular pressure (IOP) change ([1]; treated eye, 0.1 μg, 0.5 h): 1.7 ± 0.9 mmHg
Intraocular pressure (IOP) change ([1]; treated eye, 0.1 μg, 1 h): 0.2 ± 1.3 mmHg
Intraocular pressure (IOP) change ([1]; treated eye, 0.1 μg, 2 h): 0.8 ± 1.2 mmHg
Intraocular pressure (IOP) change ([1]; treated eye, 0.1 μg, 3 h): 0.6 ± 0.6 mmHg
Intraocular pressure (IOP) change ([1]; treated eye, 0.1 μg, 4 h): 1.8 ± 0.5 mmHg
Intraocular pressure (IOP) change ([1]; treated eye, 0.1 μg, 5 h): 2.0 ± 0.9 mmHg
Intraocular pressure (IOP) change ([1]; treated eye, 1.0 μg, 0 h): 0.0 ± 0.0 mmHg
Intraocular pressure (IOP) change ([1]; treated eye, 1.0 μg, 0.5 h): −1.0 ± 0.3 mmHg
Intraocular pressure (IOP) change ([1]; treated eye, 1.0 μg, 1 h): −3.6 ± 0.7 mmHg
Intraocular pressure (IOP) change ([1]; treated eye, 1.0 μg, 2 h): −4.6 ± 1.4 mmHg
Intraocular pressure (IOP) change ([1]; treated eye, 1.0 μg, 3 h): −4.3 ± 1.1 mmHg
Intraocular pressure (IOP) change ([1]; treated eye, 1.0 μg, 4 h): −2.0 ± 1.4 mmHg
Intraocular pressure (IOP) change ([1]; treated eye, 1.0 μg, 5 h): −0.9 ± 1.8 mmHg
Intraocular pressure (IOP) change ([1]; treated eye, 2.5 μg, 0 h): 0.0 ± 0.0 mmHg
Intraocular pressure (IOP) change ([1]; treated eye, 2.5 μg, 0.5 h): 0.6 ± 0.9 mmHg
Intraocular pressure (IOP) change ([1]; treated eye, 2.5 μg, 1 h): −2.9 ± 1.3 mmHg
Intraocular pressure (IOP) change ([1]; treated eye, 2.5 μg, 2 h): −3.3 ± 1.8 mmHg
Intraocular pressure (IOP) change ([1]; treated eye, 2.5 μg, 3 h): −1.6 ± 1.7 mmHg
Intraocular pressure (IOP) change ([1]; treated eye, 2.5 μg, 4 h): 1.0 ± 2.2 mmHg
Intraocular pressure (IOP) change ([1]; treated eye, 2.5 μg, 5 h): 1.3 ± 1.9 mmHg
Intraocular pressure (IOP) change ([1]; treated eye, 3.4 μg (equimolar to 2.5 μg of MPV-2426), 0 h): 0.0 ± 0.0 mmHg
Intraocular pressure (IOP) change ([1]; treated eye, 3.4 μg (equimolar to 2.5 μg of MPV-2426), 0.5 h): −0.9 ± 0.9 mmHg
Intraocular pressure (IOP) change ([1]; treated eye, 3.4 μg (equimolar to 2.5 μg of MPV-2426), 1 h): −2.9 ± 0.5 mmHg
Intraocular pressure (IOP) change ([1]; treated eye, 3.4 μg (equimolar to 2.5 μg of MPV-2426), 2 h): −6.5 ± 1.1 mmHg
Intraocular pressure (IOP) change ([1]; treated eye, 3.4 μg (equimolar to 2.5 μg of MPV-2426), 3 h): −5.2 ± 1.7 mmHg
Intraocular pressure (IOP) change ([1]; treated eye, 3.4 μg (equimolar to 2.5 μg of MPV-2426), 4 h): −3.2 ± 0.9 mmHg
Intraocular pressure (IOP) change ([1]; treated eye, 3.4 μg (equimolar to 2.5 μg of MPV-2426), 5 h): −1.4 ± 0.7 mmHg
IOP changes in the untreated eyes ([1]; untreated (contralateral) eyes): Less significant changes
Intraocular pressure (IOP) change ([1]; untreated eye, 0.1 μg, 0 h): 0.0 ± 0.0 mmHg
Intraocular pressure (IOP) change ([1]; untreated eye, 0.1 μg, 0.5 h): 1.4 ± 0.1 mmHg
Intraocular pressure (IOP) change ([1]; untreated eye, 0.1 μg, 1 h): 0.9 ± 0.5 mmHg
Intraocular pressure (IOP) change ([1]; untreated eye, 0.1 μg, 2 h): 1.3 ± 0.2 mmHg
Intraocular pressure (IOP) change ([1]; untreated eye, 0.1 μg, 3 h): 1.3 ± 0.7 mmHg
Intraocular pressure (IOP) change ([1]; untreated eye, 0.1 μg, 4 h): 1.0 ± 0.9 mmHg
Intraocular pressure (IOP) change ([1]; untreated eye, 0.1 μg, 5 h): 2.4 ± 1.3 mmHg
Intraocular pressure (IOP) change ([1]; untreated eye, 1.0 μg, 0 h): 0.0 ± 0.0 mmHg
Intraocular pressure (IOP) change ([1]; untreated eye, 1.0 μg, 0.5 h): 0.0 ± 1.4 mmHg
Intraocular pressure (IOP) change ([1]; untreated eye, 1.0 μg, 1 h): −2.1 ± 1.2 mmHg
Intraocular pressure (IOP) change ([1]; untreated eye, 1.0 μg, 2 h): −2.0 ± 1.8 mmHg
Intraocular pressure (IOP) change ([1]; untreated eye, 1.0 μg, 3 h): −0.9 ± 2.4 mmHg
Intraocular pressure (IOP) change ([1]; untreated eye, 1.0 μg, 4 h): −1.4 ± 0.7 mmHg
Intraocular pressure (IOP) change ([1]; untreated eye, 1.0 μg, 5 h): −0.8 ± 2.1 mmHg
Intraocular pressure (IOP) change ([1]; untreated eye, 2.5 μg, 0 h): 0.0 ± 0.0 mmHg
Intraocular pressure (IOP) change ([1]; untreated eye, 2.5 μg, 0.5 h): −0.2 ± 0.9 mmHg
Intraocular pressure (IOP) change ([1]; untreated eye, 2.5 μg, 1 h): −0.6 ± 0.7 mmHg
Intraocular pressure (IOP) change ([1]; untreated eye, 2.5 μg, 2 h): 0.0 ± 1.5 mmHg
Intraocular pressure (IOP) change ([1]; untreated eye, 2.5 μg, 3 h): 0.1 ± 1.0 mmHg
Intraocular pressure (IOP) change ([1]; untreated eye, 2.5 μg, 4 h): 1.0 ± 1.8 mmHg
Intraocular pressure (IOP) change ([1]; untreated eye, 2.5 μg, 5 h): 0.3 ± 1.6 mmHg
Intraocular pressure (IOP) change ([1]; untreated eye, 3.4 μg (equimolar to 2.5 μg of MPV-2426), 0 h): 0.0 ± 0.0 mmHg
Intraocular pressure (IOP) change ([1]; untreated eye, 3.4 μg (equimolar to 2.5 μg of MPV-2426), 0.5 h): 0.4 ± 0.7 mmHg
Intraocular pressure (IOP) change ([1]; untreated eye, 3.4 μg (equimolar to 2.5 μg of MPV-2426), 1 h): −2.7 ± 0.8 mmHg
Intraocular pressure (IOP) change ([1]; untreated eye, 3.4 μg (equimolar to 2.5 μg of MPV-2426), 2 h): −1.3 ± 0.6 mmHg
Intraocular pressure (IOP) change ([1]; untreated eye, 3.4 μg (equimolar to 2.5 μg of MPV-2426), 3 h): −2.8 ± 0.8 mmHg
Intraocular pressure (IOP) change ([1]; untreated eye, 3.4 μg (equimolar to 2.5 μg of MPV-2426), 4 h): −0.8 ± 0.7 mmHg
Intraocular pressure (IOP) change ([1]; untreated eye, 3.4 μg (equimolar to 2.5 μg of MPV-2426), 5 h): −0.8 ± 1.0 mmHg
